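Compound exposure: 48 hours, 5 concentrations, 96-well plates. GI50 = concentration required for 50% inhibition of growth.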 Activity calls are given as the source filed them. Rule as the data show it: active = GI50 up to about 1.1 µM and inactive = higher. Non-standard residues stand in square brackets, D forms with d. Residues, ends and D or L forms follow the SMILES beside them. ξ: configuration not given here. *: point of attachment. NMeF = CN[C@@H](Cc1ccccc1)C(=O)O; NMeV = CN[C@H](C(=O)O)C(C)C; ξNMeV = CNC(C(=O)O)C(C)C; Boc = CC(C)(C)OC(=O)*; OBn = c1ccc(CO*)cc1
What was measured:
Assay in all cases: growth of human tumour cells (NCI), 48 h
DMS-114 = test system: DMS-114
KM-20L2 = test system: KM-20L2
LXFL 529 = test system: LXFL 529
DLD-1 = test system: DLD-1
M19-MEL = test system: M19-MEL
XF498 = test system: XF498
RXF 631 = test system: RXF 631
HOP-18 = test system: HOP-18
SNB-78 = test system: SNB-78

Measured: GI50

CN1C(=O)CN2C(Cl)(Cl)C2(c2ccccc2F)c2cc([N+](=O)[O-])ccc21 (stereo not drawn)
inactive: DMS-114 42.8 µM | KM-20L2 26.7 µM | LXFL 529 58.1 µM | DLD-1 35.1 µM | M19-MEL 65.6 µM

O=[N+]([O-])c1ccc(C2SCc3nc4ccccc4n32)cc1 (stereo not drawn)
inactive: XF498 12.3 µM | DMS-114 35.1 µM | RXF 631 > 100 µM | HOP-18 88.3 µM | KM-20L2 > 100 µM | LXFL 529 43.4 µM | DLD-1 89.7 µM | SNB-78 > 100 µM | M19-MEL 81.8 µM

CC(=O)N/C(=C\c1ccccc1/C=C(\NC(C)=O)c1nc2cc(C)c(C)cc2[nH]1)c1nc2cc(C)c(C)cc2[nH]1
active: DMS-114 0.23 µM
inactive: XF498 15.6 µM | KM-20L2 29.4 µM | LXFL 529 17.1 µM | DLD-1 19.2 µM | SNB-78 10.7 µM | M19-MEL 10.7 µM

C=CCC12CC(=O)CCC1CC(=O)C2 (stereo not drawn)
inactive: DMS-114 > 100 µM | HOP-18 > 100 µM | KM-20L2 > 100 µM | LXFL 529 > 100 µM | DLD-1 > 100 µM | SNB-78 > 100 µM | M19-MEL > 100 µM

CCOC(=O)C1=C(C)N(NC(=O)OC)C2(N)N(NC(=O)OC)C(C)=C(C(=O)OCC)C12C#N (stereo not drawn)
inactive: XF498 > 100 µM | DMS-114 > 100 µM | KM-20L2 > 100 µM | LXFL 529 > 100 µM | DLD-1 > 100 µM | M19-MEL > 100 µM

COc1ccc(C(=O)C(C(=O)CCC(=O)Nc2cccc(C(F)(F)F)c2)c2ccccc2)cc1 (stereo not drawn)
inactive: XF498 54.1 µM | DMS-114 36.2 µM | HOP-18 > 100 µM | KM-20L2 > 100 µM | LXFL 529 62.2 µM | DLD-1 > 100 µM | SNB-78 > 100 µM | M19-MEL 67.5 µM

O=NN(CCCl)C(=O)N[C@H]1CC[C@@H](CC(=O)O)CC1
inactive: XF498 > 100 µM | DMS-114 > 100 µM | HOP-18 > 100 µM | KM-20L2 > 100 µM | DLD-1 > 100 µM | SNB-78 > 100 µM | M19-MEL > 100 µM

c1ccc(/N=c2\snc3scc(-c4ccccc4)n23)cc1
inactive: XF498 32.1 µM | DMS-114 30.3 µM | RXF 631 66.8 µM | HOP-18 24.8 µM | LXFL 529 33.5 µM | DLD-1 36.9 µM | SNB-78 57.3 µM | M19-MEL 32.3 µM

O=C(c1ccccc1)c1ccc2cccc(OC3OC(CO)C(O)C(O)C3O)c2n1 (stereo not drawn)
inactive: XF498 > 100 µM | DMS-114 > 100 µM | HOP-18 > 100 µM | KM-20L2 > 100 µM | LXFL 529 > 100 µM | DLD-1 > 100 µM | SNB-78 > 100 µM

CCNC1=Nc2ccccc2-n2c(nn3nc4ccccc4c23)N1CC
inactive: DMS-114 89.3 µM | HOP-18 > 100 µM | KM-20L2 > 100 µM | LXFL 529 > 100 µM | DLD-1 > 100 µM | M19-MEL > 100 µM

O=C(/C=C/C1C(=O)NC(=O)NC1=O)CC(=O)C(=O)Nc1cc(Cl)c(Cl)cc1Cl
inactive: XF498 > 100 µM | DMS-114 > 100 µM | HOP-18 > 100 µM | KM-20L2 > 100 µM | LXFL 529 > 100 µM | DLD-1 > 100 µM | SNB-78 > 100 µM | M19-MEL > 100 µM

CC1OC(OCC2OC(Oc3c(-c4ccc(O)cc4)oc4cc(O)cc(O)c4c3=O)C(OC3OC(C)C(O)C(O)C3O)C(O)C2O)C(O)C(O)C1O (stereo not drawn)
inactive: XF498 > 100 µM | DMS-114 > 53.7 µM | RXF 631 > 100 µM | HOP-18 > 100 µM | KM-20L2 > 100 µM | LXFL 529 > 100 µM | DLD-1 > 100 µM | SNB-78 > 100 µM | M19-MEL > 72.4 µM

O=C(O)CNS(=O)(=O)c1ccc(NC(=O)c2ccc([N+](=O)[O-])cc2)cc1
inactive: XF498 > 100 µM | RXF 631 > 100 µM | HOP-18 > 100 µM | KM-20L2 > 100 µM | LXFL 529 > 100 µM | DLD-1 > 100 µM | M19-MEL > 100 µM

C[C@@H]1CC2(C[C@@H](C)C3[C@@H](CC4(C)CCCC5C6=CC(O)(CC[C@]34C)OC6=CC(=O)OC5(C)C)O2)OC1=O (stereo partly drawn)
inactive: XF498 > 100 µM | DMS-114 > 100 µM | HOP-18 > 100 µM | LXFL 529 > 100 µM | DLD-1 > 100 µM

COc1cc(C2c3cc4c(cc3[C@@H](Nc3ccc(C(=O)O)cc3)C3COC(=O)[C@H]23)OCO4)cc(OC)c1O (stereo partly drawn)
inactive: LXFL 529 11 µM | SNB-78 10.7 µM | M19-MEL 15.7 µM

CC(C)C(C(=O)N(C)[C@H](C(=O)N1CCC[C@H]1C(=O)N(C)[C@@H](Cc1ccccc1)C(=O)OCc1ccccc1)C(C)C)N(C)C(=O)[C@@H](NC(=O)OC(C)(C)C)C(C)C (stereo partly drawn) (Boc-V[ξNMeV][NMeV]P[NMeF]-OBn)
inactive: XF498 6.19 µM | DMS-114 11 µM | HOP-18 32.1 µM | KM-20L2 > 31.6 µM | LXFL 529 15.1 µM | DLD-1 24.9 µM | SNB-78 > 31.6 µM | M19-MEL 30 µM

COC[C@@H]1Cc2cc(OC)c3c(c2[C@H](c2ccc(OC)c(OC)c2)[C@H]1COC)OCO3 [HYPOPHYLLANTHIN]
inactive: XF498 19.1 µM | DMS-114 > 100 µM | RXF 631 > 100 µM | HOP-18 > 100 µM | KM-20L2 > 100 µM | LXFL 529 > 100 µM | DLD-1 47.3 µM | M19-MEL > 100 µM

— ChEMBL document CHEMBL1201862, “PubChem BioAssay data set” (2004)
